Source: patent US7084169B2, “Aminoalkoxyindoles and methods of use” (Roche Palo Alto LLC, priority 2002, dated 2006)

target: T1, recombinant human 5-HT6 receptor (Homo sapiens, UniProt P50406); experiment: Radioligand binding studies, competition for [3H]LSD binding in HEK293 cell membranes; details: [3H]LSD (5 nM), membranes of HEK293 cells stably expressing recombinant human 5-HT6 receptor, pH 7.4, 37° C., 60 min; read-out: 5-HT6 affinity values (pKi) (converted)
T1 construct: expressed in transfected cells; membranes used
Method: The binding activity of compounds of this invention in vitro was determined as follows. Duplicate determinations of ligand affinity are made by competing for binding of [^3H]LSD in cell membranes derived from HEK293 cells stably expressing recombinant human 5-HT6 receptor.
All determinations were made in assay buffer containing 50 mM Tris-HCl, 10 mM MgSO4, 0.5 mM EDTA, 1 mM ascorbic acid, pH 7.4 at 37° C., in a 250 microliter reaction volume. Assay tubes containing [^3H] LSD (5 nM), competing ligand, and membrane were incubated in a shaking water bath for 60 min. at 37° C., filtered onto Packard GF-B plates (pre-soaked with 0.3% PEI) using a Packard 96 well cell harvester and washed 3 times in ice cold 50 mM Tris-HCl. Bound [^3H] LSD was determined as radioactive counts per minute using Packard TopCount.
Displacement of [3H]LSD from the binding sites was quantified by fitting concentration-binding data to a 4-parameter logistic equation:
[formula] where Hill is the Hill slope, [ligand] is the concentration of competing radioligand and IC50 is the concentration of radioligand producing half-maximal specific binding of radioligand. The specific binding window is the difference between the Bmax and the basal parameters.

T1 sequence (P50406 whole entry): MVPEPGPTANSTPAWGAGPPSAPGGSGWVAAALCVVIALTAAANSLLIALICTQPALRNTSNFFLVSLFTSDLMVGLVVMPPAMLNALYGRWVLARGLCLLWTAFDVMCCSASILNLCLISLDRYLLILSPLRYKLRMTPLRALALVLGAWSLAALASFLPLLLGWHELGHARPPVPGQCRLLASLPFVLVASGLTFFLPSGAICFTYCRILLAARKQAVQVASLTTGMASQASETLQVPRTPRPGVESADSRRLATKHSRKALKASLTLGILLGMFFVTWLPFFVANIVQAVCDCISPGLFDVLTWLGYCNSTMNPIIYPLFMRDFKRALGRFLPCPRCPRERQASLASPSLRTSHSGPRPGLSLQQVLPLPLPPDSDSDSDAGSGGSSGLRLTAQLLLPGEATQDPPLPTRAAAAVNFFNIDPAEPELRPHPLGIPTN

Ki | SMILES
3.98 nM | O=S(=O)(c1ccccc1Cl)c1c[nH]c2c(OCCN3CCCC3)cccc12 [3-(2-Chloro-benzenesulfonyl)-7-(2-pyrrolidin-1-yl-ethoxy)-1H-indole]
20 nM | O=S(=O)(c1ccc(Cl)c(Cl)c1)c1c[nH]c2c(OCCN3CCCC3)cccc12 [3-(3,4-Dichloro-benzenesulfonyl)-7-(2-pyrrolidin-1-yl-ethoxy)-1H-indole]
5.01 nM | O=S(=O)(c1cccc(Cl)c1)c1c[nH]c2c(OCCN3CCCC3)cccc12 [3-(3-Chloro-benzenesulfonyl)-7-(2-pyrrolidin-1-yl-ethoxy)-1H-indole]
20 nM | O=S(=O)(c1ccccc1)c1c[nH]c2c(OCCN3CCCC3)cccc12 [3-Benzenesulfonyl-7-(2-pyrrolidin-1-yl-ethoxy)-1H-indole]
